Experimental data from patent publication US8163509B2, “Biological markers predictive of anti-cancer response to insulin-like growth factor-1 receptor kinase inhibitors” (The Regents of the University of Colorado, A Body Corporate, priority 2008, dated 2012).

Molecular target: T1, IGF1R (Homo sapiens, UniProt P08069)
T1 construct: endogenous in cells; host or cells: HT29 and HCT116 CRC cell lines
Assay: Meso Scale Discovery (MSD) assay of phosphorylated IGF1R
Type: cell-based
Conditions: HT29 and HCT116; 72 h; PQIP 0.4 μmol/L, SN38 0.004 μmol/L, Oxaliplatin 1.0 μmol/L
Procedure: Detection of IGF1R using Meso Scale Discovery assays (MSD): HT29 and HCT116 CRC cell lines were seeded into 6-well plates, allowed to attach for 24 hours and exposed to PQIP and chemotherapy (SN38, or Oxaliplatin) alone or in combination for 72 h. Following exposure, cells were rinsed with PBS and scraped into RIPA lysis buffer containing protease inhibitors, EDTA, NaF, and sodium orthovanadate. Total protein was quantified using the BioRad Dc Protein Assay (BioRad, Hercules, Calif.). Fifty micrograms of protein in 25 μL was added per well for MSD detection of phosphorylated IGF-1R according to manufacturer's instructions (Meso Scale Discovery, Gaithersburg, Md.).
Cells were exposed to PQIP (0.4 μmol/L) and chemotherapy (SN38 0.004 μmol/L, or Oxaliplatin 1.0 μmol/L) alone or in combination for 72 h. Protein was extracted and analyzed for phospho/total IGF1R levels using a Meso Scale Discovery (MSD; Gaithersburg, Md. 20877) assay.

T1 sequence (P08069 31-1367): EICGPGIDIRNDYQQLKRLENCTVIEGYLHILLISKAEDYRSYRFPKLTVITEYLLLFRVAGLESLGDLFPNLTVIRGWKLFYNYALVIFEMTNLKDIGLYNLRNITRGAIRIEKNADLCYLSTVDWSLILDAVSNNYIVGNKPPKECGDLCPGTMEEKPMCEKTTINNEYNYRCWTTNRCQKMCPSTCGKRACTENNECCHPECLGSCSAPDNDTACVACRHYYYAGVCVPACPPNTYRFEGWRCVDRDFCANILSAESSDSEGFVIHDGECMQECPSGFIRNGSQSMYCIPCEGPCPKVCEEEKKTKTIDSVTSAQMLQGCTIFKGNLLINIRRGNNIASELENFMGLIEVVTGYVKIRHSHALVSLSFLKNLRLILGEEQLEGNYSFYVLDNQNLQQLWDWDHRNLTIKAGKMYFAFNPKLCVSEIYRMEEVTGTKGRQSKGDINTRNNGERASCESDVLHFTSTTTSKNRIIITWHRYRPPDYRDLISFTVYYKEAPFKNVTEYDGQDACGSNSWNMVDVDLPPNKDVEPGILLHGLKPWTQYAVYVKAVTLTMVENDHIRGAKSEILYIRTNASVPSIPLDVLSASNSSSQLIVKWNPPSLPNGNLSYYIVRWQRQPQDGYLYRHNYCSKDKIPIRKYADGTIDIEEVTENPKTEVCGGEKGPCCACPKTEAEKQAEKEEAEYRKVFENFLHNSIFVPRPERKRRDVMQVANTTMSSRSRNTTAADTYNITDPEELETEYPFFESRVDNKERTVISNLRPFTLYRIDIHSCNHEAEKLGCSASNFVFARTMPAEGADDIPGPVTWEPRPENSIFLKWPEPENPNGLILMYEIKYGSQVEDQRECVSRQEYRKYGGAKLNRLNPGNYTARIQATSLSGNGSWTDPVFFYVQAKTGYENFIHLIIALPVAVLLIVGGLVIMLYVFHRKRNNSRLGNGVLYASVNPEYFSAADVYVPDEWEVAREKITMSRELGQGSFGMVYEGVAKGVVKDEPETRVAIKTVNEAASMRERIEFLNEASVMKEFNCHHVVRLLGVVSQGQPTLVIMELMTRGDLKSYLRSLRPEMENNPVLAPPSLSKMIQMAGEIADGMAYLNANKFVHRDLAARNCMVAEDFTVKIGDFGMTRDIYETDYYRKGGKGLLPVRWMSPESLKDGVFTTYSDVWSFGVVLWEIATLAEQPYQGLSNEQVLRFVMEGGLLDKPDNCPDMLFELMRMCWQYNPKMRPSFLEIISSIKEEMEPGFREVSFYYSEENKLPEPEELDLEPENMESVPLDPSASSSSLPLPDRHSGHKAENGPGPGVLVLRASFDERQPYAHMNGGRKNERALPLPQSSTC

Row | SMILES | effect on phosphorylated IGF1R, agent alone
1 | O=C1[O][Pt]2([NH][C@@H]3CCCC[C@H]3[NH]2)[O]C1=O [Oxaliplatin, reference compound] | no significant effect
2 | CCc1c2c(nc3ccc(O)cc13)-c1cc3c(c(=O)n1C2)COC(=O)[C@]3(O)CC [SN38, 7-Ethyl-10-hydroxy-camptothecin, reference compound] | no significant effect
